Experimental data published in patent US20240024317A1, “CANCER TREATMENT USING BOSENTAN IN COMBINATION WITH A CHECKPOINT INHIBITOR” (Materia Therapeutics Inc., priority 2020, published 2024).

Experiments:
E0771 tumors = test: Ultrasound shear wave elastography of tissue stiffness, bosentan dose response; assay type: in vivo, mice; conditions: 1 mg/kg daily bosentan i.p.; E0771 breast tumors
Description: (§1) Mice bearing syngeneic, orthotopic triple negative breast cancer (TNBC) were treated with a range of sub-therapeutic doses of bosentan, from 0.2 mg/kg to 10 mg/kg of body weight. Orthotopic models for murine mammary tumors were generated by implantation of 5×10^4 4T1 or E0771 cancer cells in 40 μl of serum-free medium into the third mammary fat pad of 6-8-week-old BALB/c and C57BL/6 female mice, respectively. 4T1 (ATCC® CRL-2539TH) and E0771 (94A001, CH3 BioSystems) mouse breast adenocarcinoma cell lines were purchased form ATCC and CH3 BioSystems, respectively. The cells were maintained at 37° C./5% CO2 in Roswell Park Memorial Institute medium (RPMI-1640, LM-R1637, Biosera) supplemented with 10% fetal bovine serum (FBS, FB-1001H, biosera) and 1% antibiotics (A5955, Sigma). Bosentan (bosentan Hydrate (S3051, Selleckchem) was dissolved in ddH2O containing 2% DMSO (GK2245, Glentham Life Science), 30% PEG300 (S6704, Selleckchem) and 2% Tween 80 (S6702, Selleckchem)) 1 mg/kg, 5 mg/kg, 10 mg/kg or equal volume of diluent (control group) was administered by intraperitoneal injection (i.p.) once a day for 10 days, starting from once the tumor volumes reached an average size of 100 mm^3. Tumors were excised when they reached an average size of 500 mm^3. Tissue stiffness was then measured non-invasively and longitudinally using ultrasound elastography. […]

4T1 tumors = test: as above; assay type: in vivo, mice; conditions: 1 mg/kg daily bosentan i.p.; 4T1 breast tumors
Description: as §1

COc1ccccc1Oc1c(NS(=O)(=O)c2ccc(C(C)(C)C)cc2)nc(-c2ncccn2)nc1OCCO [bosentan, 4-tert-butyl-N-[6-(2-hydroxy-ethoxy)-5-(2-methoxy-phenoxy)-2-(pyrimidin-2-yl)pyrimidin-4-yl] benzenesulfonamide]
tissue stiffness (ultrasound elastography) (E0771 tumors): reduced tissue stiffness
tissue stiffness (ultrasound elastography) (4T1 tumors): reduced tissue stiffness
